One experiment deals with Human whole blood. The experiment in a line: IRAK4 Whole Blood Assay (IL-6 levels after stimulation with TLR2 agonist lipoteichoic acid). As to conditions: 10 μg/mL lipoteichoic acid, 5 hours. The experiment is classed as cell-based. The method in brief:
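ACD-A anticoagulated human whole blood preincubated with compound 60 min at 37 °C, 5% CO2, then stimulated 5 h with lipoteichoic acid at 10 μg/mL final. IL-6 in supernatants measured by flow cytometry bead assay.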

In a further experiment the target is IRAK4 (Homo sapiens (Human), UniProt Q9NWZ3). The experiment in a line: IRAK4 Inhibition Assay. The experiment is classed as biochemical. As to conditions: ATP 500 μM; IRAK4 0.6 nM; 60 min room temperature; Caliper LABCHIP 3000.
Sequence of IRAK4 (Q9NWZ3 whole entry, species assumed): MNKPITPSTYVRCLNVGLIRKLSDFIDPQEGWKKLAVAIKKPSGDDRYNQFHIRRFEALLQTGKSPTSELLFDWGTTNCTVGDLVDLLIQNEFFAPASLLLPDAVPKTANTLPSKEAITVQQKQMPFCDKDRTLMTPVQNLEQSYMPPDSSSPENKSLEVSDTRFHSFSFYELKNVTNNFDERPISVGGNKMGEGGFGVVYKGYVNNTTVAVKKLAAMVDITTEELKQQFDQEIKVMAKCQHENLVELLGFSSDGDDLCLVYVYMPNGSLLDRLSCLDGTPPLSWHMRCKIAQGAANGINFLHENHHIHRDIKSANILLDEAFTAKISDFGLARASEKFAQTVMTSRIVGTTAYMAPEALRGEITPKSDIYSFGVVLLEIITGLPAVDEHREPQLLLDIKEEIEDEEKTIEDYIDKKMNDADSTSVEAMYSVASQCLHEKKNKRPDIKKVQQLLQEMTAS

Regarding `CC(C)Nc1c(C(=O)NCc2cnco2)cnc2ccc(-c3cn[nH]c3)cc12` [Example 14, 4-(isopropylamino)-N-(oxazol-5-ylmethyl)-6-(1H-pyrazol-4-yl)quinoline-3-carboxamide], the concentration for a half-maximal effect (EC50) in the experiment on Human whole blood came to 868 nM. Also, the 50% inhibitory concentration (IC50) at IRAK4 amounted to 14.1 nM.

Take `CC(C)Nc1c(C(=O)NCCc2cccnc2)cnc2ccc(-c3cn[nH]c3)cc12` [Example 98, 4-(isopropylamino)-6-(1H-pyrazol-4-yl)-N-(2-(pyridin-3-yl)ethyl)quinoline-3-carboxamide]: the EC50 in the experiment on Human whole blood turned out to be 607 nM. Further, the IC50 at IRAK4 was 4.2 nM.

`CC(C)Nc1c(C(=O)NCc2nnc[nH]2)cnc2ccc(-c3cn[nH]c3)cc12` [Example 22, N-((4H-1,2,4-triazol-3-yl)methyl)-4-(isopropylamino)-6-(1H-pyrazol-4-yl)quinoline-3-carboxamide]: the EC50 with Human whole blood was 6450 nM. Further, the IC50 on IRAK4 is 7.5 nM.

`O=C(NCCc1cccnc1)c1cnc2ccc(-c3cn[nH]c3)cc2c1NC1CC1` [Example 115, 4-(cyclopropylamino)-6-(1H-pyrazol-4-yl)-N-(2-(pyridin-3-yl)ethyl)quinoline-3-carboxamide]: the concentration giving a half-maximal response (EC50) with Human whole blood was 1100 nM. Besides, at IRAK4, the IC50 was 4.4 nM.

As for `CC(C)(O)[C@H](F)CNC(=O)c1cnc2ccc(-c3cn[nH]c3)cc2c1NC1COC1` [Example 34, (R)—N-(2-fluoro-3-hydroxy-3-methylbutyl)-4-(oxetan-3-ylamino)-6-(1H-pyrazol-4-yl)quinoline-3-carboxamide], in the experiment with Human whole blood, the midpoint of the response, the EC50, lay at 544 nM. The IC50 at IRAK4 was determined as 9.8 nM.

Regarding `CC(C)Nc1c(C(=O)NCCC(F)(F)F)cnc2ccc(-c3cn[nH]c3)cc12` [Example 43, 4-(isopropylamino)-6-(1H-pyrazol-4-yl)-N-(3,3,3-trifluoropropyl)quinoline-3-carboxamide], the half-maximal effective concentration (EC50) with Human whole blood was determined as 549 nM. Moreover, the concentration for half-maximal inhibition (IC50) at IRAK4 was 14.6 nM.

In the case of `CC(C)Nc1c(C(=O)NCC2CCS(=O)(=O)CC2)cnc2ccc(-c3cn[nH]c3)cc12` [Example 107, N-((1,1-dioxidotetrahydro-2H-thiopyran-4-yl)methyl)-4-(isopropylamino)-6-(1H-pyrazol-4-yl)quinoline-3-carboxamide], the concentration for a half-maximal effect (EC50) in the experiment on Human whole blood was 3770 nM. In addition, at IRAK4, the IC50 worked out at 21 nM.

For the compound `CC(=O)N1CCC(NC(=O)c2cnc3ccc(-c4cn[nH]c4)cc3c2NC(C)C)CC1` [Example 77, N-(1-acetylpiperidin-4-yl)-4-(isopropylamino)-6-(1H-pyrazol-4-yl)quinoline-3-carboxamide], in the experiment on Human whole blood, the half-maximal effective concentration (EC50) stood at 788 nM. On IRAK4, the half-inhibitory concentration (IC50) was 9.9 nM.

The compound `CC(O)CCNC(=O)c1cnc2ccc(-c3cn[nH]c3)nc2c1NC(C)C` (stereo not drawn) [Example 140, N-(3-hydroxybutyl)-4-(isopropylamino)-6-(1H-pyrazol-4-yl)-1,5-naphthyridine-3-carboxamide] returned an EC50 in the experiment on Human whole blood of 137 nM. In addition, the 50% inhibitory concentration (IC50) at IRAK4 turned out to be 4.8 nM.

As for `O=C(NCCCc1ccncc1)c1cnc2ccc(-c3cn[nH]c3)cc2c1NC1CC1` [Example 118, 4-(cyclopropylamino)-6-(1H-pyrazol-4-yl)-N-(3-(pyridin-4-yl)propyl)quinoline-3-carboxamide], in the experiment on Human whole blood, a half-maximal response (EC50) required 3150 nM. Besides, the IC50 at IRAK4 came out at 10.8 nM.

`CC(=O)N[C@H]1CC[C@H](NC(=O)c2cnc3ccc(-c4cn[nH]c4)nc3c2NC(C)C)CC1` [Example 155, N-((1r,4r)-4-acetamidocyclohexyl)-4-(isopropylamino)-6-(1H-pyrazol-4-yl)-1,5-naphthyridine-3-carboxamide] gave an EC50 in the experiment on Human whole blood of 502 nM. The half-maximal inhibitory concentration (IC50) on IRAK4 came out at 3.3 nM.

The compound `CC(C)Nc1c(C(=O)NCCC2CC2)cnc2ccc(-c3cn[nH]c3)nc12` [Example 149, N-(2-cyclopropylethyl)-4-(isopropylamino)-6-(1H-pyrazol-4-yl)-1,5-naphthyridine-3-carboxamide] registered an EC50 with Human whole blood of 175 nM. Also, on IRAK4, the IC50 was determined as 2.7 nM.
